# Source: patent US7875282B2 (Cordis Corporation, priority 2004, dated 2011)
# pIC50: −log10 of the molar value.
# Columns and labels:
# [1] = test system: human coronary artery smooth muscle cells; assay: Anti-proliferative activity in synchronized cultured cells stimulated with two percent fetal bovine serum; assay type: cell-based; conditions: for effect of addition on the anti-proliferative activity of rapamycin: added to rapamycin
# Source text: The multiple curves represent various concentrations of topotecan ranging from zero to three hundred nanomolar concentrations.
# The multiple curves represent various concentrations of etoposide ranging from zero to eight hundred nanomolar concentrations.
# The multiple curves represent various concentrations of Panzem® ranging from zero to 100 micromolar concentrations.
# [2] = test system: human smooth muscle cells; assay: PDGF-stimulated proliferation of human smooth muscle cells, cell count; assay type: cell-based; conditions: from IC50 values
# Protocol: To assess the ability of cladribine to prevent cell proliferation, human smooth muscle or endothelial cells (Clonetics, Walkersville, Md.) were seeded at a density of 2000 cells/cm^2 (approximately 3600 cells/well) into each well of 12-well plates and cultured with 1.5 ml of growth medium containing five percent fetal calf serum (FCS). After twenty-four hours, the growth medium was changed and fresh medium containing 10 ng/ml platelet-derived growth factor AB (PDGF AB; LIFE Technologies), as well as various concentrations of cladribine (0.001-10,000 nM) were added with triplicate wells. Medium was replaced with fresh cladribine-containing medium after three days. On day six, cells were detached by trypsinization to yield a cell suspension, lightly centrifuged to pellet and then counted manually using a Neubauer hemocytometer system. Cell viability was assessed by trypan blue exclusion.
# [3] = test system: human coronary artery smooth muscle cells; assay: Anti-proliferative activity in non-synchronized cultured cells stimulated with two percent fetal bovine serum; assay type: cell-based; conditions: for effect of addition on the anti-proliferative activity of rapamycin: non-synchronized cells, added to rapamycin
# Source text: The multiple curves represent various concentrations of mycophenolic acid ranging from zero to one thousand nanomolar concentrations.
# FIG. 58 illustrates, in graphical format, the anti-proliferative activity of cladribine in non-synchronized cultured human coronary artery smooth muscle cells stimulated with two percent fetal bovine serum.
# The multiple curves represent various concentrations of cladribine ranging from zero to nine hundred nanomolar concentrations.
# [4] = In vivo release kinetics from rapamycin, cladribine and polymer coating, porcine pharmacokinetics studies; set-up: species or system Yorkshire pigs; conditions: Bx Velocity stents, BMA topcoat
# Source text: (§1) The basecoat is applied to Bx Velocity® stents and implanted into Yorkshire pigs.
# as §1
# [5] = In vivo release kinetics from rapamycin, mycophenolic acid and polymer coating, porcine pharmacokinetics studies; conditions: one hundred eighty micro grams each drug
# tumor cell lines = conditions: Woo et al., J. Med Chem 2002; cited from earlier work
# [6] = test system: human coronary artery smooth muscle cell; assay: In vitro cell culture study of coronary artery smooth muscle cell proliferation; assay type: cell-based
# Source text: FIG. 51 is a graph of the inhibition of coronary artery smooth muscle cells by trichostatin A in a cell culture study.
structure (smiles),measurement,setting,value
"COc1cc2c(cc1O)CC[C@@H]1[C@@H]2CC[C@]2(C)[C@@H](O)CC[C@@H]12 [Panzem®, 2-methoxyestradiol]",effect of addition on the anti-proliferative activity of rapamycin,[1],increases the percent of inhibition of rapamycin alone
same,anti-proliferative activity,[1]; agent alone,extremely effective inhibitor of human coronary artery smooth muscle cell proliferation
"Nc1nc(Cl)nc2c1ncn2[C@H]1C[C@H](O)[C@@H](CO)O1 [cladribine, 2-chlorodeoxyadenosine]",potency as inhibitor of smooth muscle cells relative to endothelial cells,[2],approximately twice
same,effect of addition on the anti-proliferative activity of rapamycin,[3],increases the percent inhibition of rapamycin alone
same,inhibition of human coronary artery smooth muscle cell proliferation,"[3]; non-synchronized, two percent fetal bovine serum",completely inhibits
same,elution from EVA/BMA basecoat compared with rapamycin,[4],elutes more rapidly than rapamycin
COc1cc([C@@H]2c3cc4c(cc3[C@@H](O[C@@H]3O[C@@H]5CO[C@@H](C)O[C@H]5[C@H](O)[C@H]3O)[C@H]3COC(=O)[C@H]23)OCO4)cc(OC)c1O [etoposide],effect of addition on the anti-proliferative activity of rapamycin,[1],increases the percent inhibition of rapamycin alone
COc1c(C)c2c(c(O)c1C/C=C(\C)CCC(=O)O)C(=O)OC2 [mycophenolic acid],elution from EVA/BMA basecoat compared with rapamycin,[5],elutes more completely over a shorter duration than the rapamycin
same,effect of addition on the anti-proliferative activity of rapamycin,[3],potentiates the anti-proliferative activity of rapamycin
CC[C@@]1(O)C(=O)OCc2c1cc1n(c2=O)Cc2cc3c(CN(C)C)c(O)ccc3nc2-1 [topotecan],effect of addition on the anti-proliferative activity of rapamycin,[1],increases the percent inhibition of rapamycin alone
CC(/C=C/C(=O)NO)=C\[C@@H](C)C(=O)c1ccc(N(C)C)cc1 [trichostatin A],anti-proliferative IC50's,tumor cell lines,low nM range
same,inhibition of human coronary artery smooth muscle cell proliferation,[6],completely inhibit
same,pIC50,[6]; read-out: anti-proliferative IC50,~8.22
